According to patent US11324708B1 (UNION therapeutics A/S, priority 2020, dated 2022):

What was measured:
[1] = system: ATCC 29213, MRSA 434844 and S. aureus Newman; assay: Spot test on LB agar, statements for all three strains; assay type: cell-based; details: for bacterial load in repeated spot test, API in DMSO: only the highest concentrations (niclosamide 100 μg/mL, oxyclozanide 40 μg/mL; 200×-400× MIC of Niclo, 180× MIC Oxy)
Description: Following incubation, the formed colonies were counted. […] Duplicates were performed.
As both positive controls were negative further the experiment was repeated using different concentrations in a spot test using the same methodology described above.
In this experiment the negative control was the bacterial suspension only.

[2] = oral 2 g/day dose
SARS-CoV = details: Vero E6 cells; read-out: EC50 of SARS-CoV replication; cited from earlier work
asthmatic mice = details: niclosamide dissolved in corn oil, I.P. injection; cited from earlier work
TMEM16A = molecular target: T1, TMEM16A (Homo sapiens, UniProt Q5XXA6); details: cited from earlier work
T1 sequence (Q5XXA6 1-986): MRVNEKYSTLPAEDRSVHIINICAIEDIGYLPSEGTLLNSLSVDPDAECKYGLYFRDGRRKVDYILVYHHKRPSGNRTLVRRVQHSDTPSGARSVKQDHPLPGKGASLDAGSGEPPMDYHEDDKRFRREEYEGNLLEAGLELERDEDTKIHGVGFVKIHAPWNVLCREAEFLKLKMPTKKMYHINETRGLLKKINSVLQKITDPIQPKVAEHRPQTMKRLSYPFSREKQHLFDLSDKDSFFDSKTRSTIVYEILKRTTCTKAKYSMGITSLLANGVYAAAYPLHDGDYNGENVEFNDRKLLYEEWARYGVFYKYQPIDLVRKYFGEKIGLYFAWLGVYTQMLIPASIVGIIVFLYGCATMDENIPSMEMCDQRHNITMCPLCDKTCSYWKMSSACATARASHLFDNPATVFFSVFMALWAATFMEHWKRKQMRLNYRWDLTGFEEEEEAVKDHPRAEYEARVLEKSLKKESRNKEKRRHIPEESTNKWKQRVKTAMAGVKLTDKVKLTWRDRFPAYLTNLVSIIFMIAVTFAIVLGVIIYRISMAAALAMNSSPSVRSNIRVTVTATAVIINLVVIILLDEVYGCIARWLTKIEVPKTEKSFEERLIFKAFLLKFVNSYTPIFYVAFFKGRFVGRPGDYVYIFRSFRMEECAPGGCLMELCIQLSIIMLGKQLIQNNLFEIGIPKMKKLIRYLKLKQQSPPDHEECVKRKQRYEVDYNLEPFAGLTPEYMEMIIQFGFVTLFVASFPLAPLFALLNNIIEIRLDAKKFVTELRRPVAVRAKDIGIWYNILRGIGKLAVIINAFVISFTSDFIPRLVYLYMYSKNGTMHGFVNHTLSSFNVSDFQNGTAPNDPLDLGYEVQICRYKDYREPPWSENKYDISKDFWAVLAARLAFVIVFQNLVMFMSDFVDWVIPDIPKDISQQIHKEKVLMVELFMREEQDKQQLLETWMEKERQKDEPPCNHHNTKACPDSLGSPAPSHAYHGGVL

TMEM 116F = molecular target: T2, TMEM 116F (Homo sapiens, UniProt Q4KMQ2); details: cited from earlier work
T2 sequence (Q4KMQ2 1-910): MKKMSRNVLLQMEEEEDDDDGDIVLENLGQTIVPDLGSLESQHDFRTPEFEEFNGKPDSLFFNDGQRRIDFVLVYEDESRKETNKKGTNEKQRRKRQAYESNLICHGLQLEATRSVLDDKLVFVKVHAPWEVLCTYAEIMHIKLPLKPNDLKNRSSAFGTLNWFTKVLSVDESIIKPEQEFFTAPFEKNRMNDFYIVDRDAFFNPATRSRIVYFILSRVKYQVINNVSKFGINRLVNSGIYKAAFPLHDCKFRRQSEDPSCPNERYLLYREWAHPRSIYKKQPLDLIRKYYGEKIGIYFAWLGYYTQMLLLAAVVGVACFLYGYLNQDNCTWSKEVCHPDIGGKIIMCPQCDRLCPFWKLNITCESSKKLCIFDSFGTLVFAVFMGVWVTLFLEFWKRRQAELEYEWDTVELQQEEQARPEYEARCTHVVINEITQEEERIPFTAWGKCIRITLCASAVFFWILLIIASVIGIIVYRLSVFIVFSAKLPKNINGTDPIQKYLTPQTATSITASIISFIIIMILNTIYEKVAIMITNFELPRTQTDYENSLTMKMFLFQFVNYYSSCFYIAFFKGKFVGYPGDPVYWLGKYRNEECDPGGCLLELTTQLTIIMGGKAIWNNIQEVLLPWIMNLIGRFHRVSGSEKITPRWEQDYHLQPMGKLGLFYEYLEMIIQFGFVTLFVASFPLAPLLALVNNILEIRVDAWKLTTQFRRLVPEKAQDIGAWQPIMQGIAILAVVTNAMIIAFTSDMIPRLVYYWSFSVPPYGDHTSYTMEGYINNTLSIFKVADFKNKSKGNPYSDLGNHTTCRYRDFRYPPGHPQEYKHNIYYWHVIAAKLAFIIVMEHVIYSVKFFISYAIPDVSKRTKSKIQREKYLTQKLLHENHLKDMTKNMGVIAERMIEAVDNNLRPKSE

in vivo = details: sheep
all targeted strains = assay: Minimum Inhibitory Concentration (MIC) assay, all targeted strains; details: read-out: MIC against all targeted strains
SARS-CoV-2 = SARS-CoV-2 in Vero E6 cells; cited from earlier work

O=C(Nc1cc(Cl)cc(Cl)c1O)c1c(O)c(Cl)cc(Cl)c1Cl [oxyclozanide, Oxyclozanide]
efficiency in reducing bacterial load ([1]; comparison among formulations): highest efficiency in reducing bacterial load of S. aureus | bacterial load in repeated spot test, API in DMSO [1]: substantially decreased the bacterial load

O=C(Nc1ccc([N+](=O)[O-])cc1Cl)c1cc(Cl)ccc1O [niclosamide]
bacterial load in repeated spot test, API in DMSO [1]: substantially decreased the bacterial load | efficacy margin mean systemic exposure of human oral dose to IC90 [2]: 8 fold | EC50 (SARS-CoV): < 100 nM | effect in asthmatic mice (asthmatic mice): reduced mucus production and secretion, as well as bronchoconstriction | inhibition of Cl- channel TMEM16A (TMEM16A): potent inhibitor | inhibition of Cl- channel TMEM 116F (TMEM 116F): potent inhibitor | Cmax (in vivo; systemic exposure Cmax (mean)): 577 ng/mL | Cmax (in vivo; systemic exposure Cmax (range)): 217 to 803 ng/mL | MIC (all targeted strains): ≤ 0.5 µg/mL

CC(=O)Oc1ccccc1C(=O)Nc1ncc([N+](=O)[O-])s1 [nitazoxanide]
EC50 (SARS-CoV-2): 2120 nM

CCN(CC)CCCC(C)Nc1ccnc2cc(Cl)ccc12 (stereo not shown) [chloroquine]
EC50 (SARS-CoV-2): 1130 nM
